# Test results reported in patent publication US9012446B2, “Amino-oxazines and amino-dihydrothiazine compounds as beta-secretase modulators and methods of use” (Amgen Inc., priority 2010, dated 2015).
# Where two headings read alike, the source gives them in different places.
# Tests used:
# Abeta 40 = assay: In vivo inhibition of beta-secretase: Abeta 40 reduction in CSF and brain of the rat; settings: after 4 hrs; for inhibition in vivo at 10 mg/kg: 10 mpk
# Excerpt: In Vivo Inhibition of Beta-Secretase
# Several animal models, including mouse, rat, dog, and monkey, may be used to screen for inhibition of beta-secretase activity in vivo following administration of a test compound sample. Animals used in this invention can be wild type, transgenic, or gene knockout animals. For example, the Tg2576 mouse model, prepared and conducted as described in Hsiao et al., 1996, Science 274, 99-102, and other non-transgenic or gene knockout animals are useful to analyze in vivo inhibition of Amyloid beta peptide (Abeta) production in the presence of inhibitory test compounds. Generally, 2 to 18 month old Tg2576 mice, gene knockout mice or non-transgenic animals are administered test compounds formulated in vehicles, such as cyclodextran, phosphate buffers, hydroxypropyl methylcellulose or other suitable vehicles. One to twenty-four hours following the administration of compound, animals are sacrificed, and brains as well as cerebrospinal fluid (CSF) and plasma are removed for analysis of A-beta levels and drug or test compound concentrations (Dovey et al., 2001, Journal of Neurochemistry, 76,173-181) Beginning at time 0, animals are administered by oral gavage, or other means of delivery such as intravenous injection, an inhibitory test compound of up to 100 mg/kg in a standard, conventional formulation, such as 2% hydroxypropyl methylcellulose, 1% Tween80. A separate group of animals receive 2% hydroxypropyl methylcellulose, 1% Tween80 alone, containing no test compound, and serve as a vehicle-control group. At the end of the test period, animals are sacrificed and brain tissues, plasma or cerebrospinal fluid are collected. Brains are either homogenized in 10 volumes (w/v) of 0.2% diethylamine (DEA) in 50 mM NaCl (Best et al., 2005, Journal of Pharmacology and Experimental Therapeutics, 313, 902-908), or in 10 volumes of 0.5% TritonX-100 in Tris-buffered saline (pH at about 7.6). Homogenates are centrifuged at 355,000 g, 4° C. for 30 minutes. CSF or brain supernatants are then analyzed for the presence of A-beta peptide by specific sandwich ELISA assays based on ECL (Electrochemiluminescence) technology. For example, rat Abeta40 is measured using biotinylated-4G8 (Signet) as a capture antibody and Fab40 (an in-house antibody specific to the C-terminal of Abeta40) as a detection antibody. For example, 4 hours after administration of 30 mg/kg oral dose of the test compound in 2% hydroxypropyl methylcellulose, 1% Tween80 (pH2.2) to 200 g male Sprague Dawley rats, amyloid beta peptide levels are measured for reduction by X % and Y % in cerebrospinal fluid and brain, respectively, when compared to the levels measured in the vehicle-treated rats. • Actual vehicles used: Oral: 2% HPMC, 1% Tween80, pH 2.2 • IV: 5% EtOH, 45% Propylene glycol in 5% Dextrose
# The compounds of the invention may be shown to reduce the formation and/or deposition of amyloid beta peptide in the cerebrospinal fluid (CSF) as well as in the brain of a mouse or rat at either 3 mpk, 10 mpk or 30 mpk (mpk=mg compound per kg weight of the animal) dosing concentrations after 4 hrs.
# BACE = BACE (Homo sapiens, UniProt P56817); assay: In vitro enzymatic BACE FRET assay; format: biochemical; settings: average IC50, enzyme assay; read-out: BACE 1 FRET assay
# Procedure, shortened: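 BACE (0.2 nM) preincubated 1 h with serially diluted inhibitors in 0.05 M acetate pH 4.2, 10% DMSO, 100 uM genapol. FRET peptide substrate (50 nM) added, 1 h incubation, then stopped with Tris to neutral pH. Fluorescence from cleavage read at […].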
# Aβ40 = assay: In vitro BACE cell-based assay (Aβ40 sandwich ELISA, cells stably expressing APP); settings: Homo sapiens
# Procedure, shortened: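 APP-stably-expressing cells, grown 24 h in DMEM/10% FBS, received 10-point compound doses starting at 100 μM or 10 μM (0.1% DMSO final). Secreted Aβ40 in supernatants measured by sandwich ELISA with time-resolved europium fluorescence; IC50 from percent inhibition versus concentration.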
# [1] = Abeta 40, rat CSF, read-out: % reduction of rat CSF levels at 10 pmk
# [2] = Abeta 40, rat brain, read-out: % reduction of rat brain levels at 10 mpk
# [3] = HEK293, average IC50, read-out: HEK cell assay
# [4] = HEK293, average IC50, cell assay, HEK cells
# Sequence of BACE (P56817 46-501, species assumed): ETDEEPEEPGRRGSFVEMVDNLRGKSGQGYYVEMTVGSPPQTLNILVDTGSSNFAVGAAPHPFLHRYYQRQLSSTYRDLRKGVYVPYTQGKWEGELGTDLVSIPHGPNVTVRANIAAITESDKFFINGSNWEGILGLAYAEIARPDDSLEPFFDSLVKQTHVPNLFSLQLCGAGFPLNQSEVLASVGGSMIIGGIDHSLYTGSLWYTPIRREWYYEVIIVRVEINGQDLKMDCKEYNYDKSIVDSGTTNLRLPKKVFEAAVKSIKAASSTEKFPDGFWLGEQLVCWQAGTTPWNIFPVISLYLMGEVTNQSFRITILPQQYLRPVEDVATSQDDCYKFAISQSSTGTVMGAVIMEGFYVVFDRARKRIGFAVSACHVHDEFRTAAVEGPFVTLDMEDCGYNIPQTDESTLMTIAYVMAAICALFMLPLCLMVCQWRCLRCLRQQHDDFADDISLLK
SMILES,IC50 (BACE) [nM],IC50 (Aβ40; [3]) [nM],IC50 (Aβ40; [4]) [nM],inhibition in vivo at 10 mg/kg (Abeta 40; [1]) [%],inhibition in vivo at 10 mg/kg (Abeta 40; [2]) [%],"% reduction of rat CSF levels (Abeta 40; Abeta 40, rat CSF, at 30 mpk) [% at 30 mpk]","% reduction of rat brain levels (Abeta 40; Abeta 40, rat brain, at 30 mpk) [% at 30 mpk]"
"CC(C)(C)COc1cnc2c(c1)[C@]1(COCC(N)=N1)c1cc(-c3cccnc3F)ccc1O2 [Example 55, (S)-7-(2-fluoropyridin-3-yl)-3-(neopentyloxy)-2′,6′-dihydrospiro[chromeno[2,3-b]pyridine-5,3′-[1,4]oxazin]-5′-amine]",0.8,0.4,,65,51,,
"CC1(C#Cc2cnc3c(c2)[C@]2(CCOC(N)=N2)c2cc(-c4cccnc4F)ccc2O3)COC1 [Example 61, (S)-7-(2-fluoropyridin-3-yl)-3-((3-methyloxetan-3-yl)ethynyl)-5′,6′-dihydrospiro[chromeno[2,3-b]pyridine-5,4′-[1,3]oxazin]-2′-amine]",2.8,2.4,,70,55,,
"NC1=N[C@]2(COC1)c1cc(-c3ccnc(F)c3)ccc1Oc1ccc(-c3cccnc3F)cc12 [Example 65, (R)-2′-(2-fluoropyridin-3-yl)-7′-(2-fluoropyridin-4-yl)-2,6-dihydrospiro[[1,4]oxazine-3,9′-xanthen]-5-amine]",1.6,,18.2,14,55,,
"NC1=N[C@@]2(COC1)c1cc(-c3cc(F)ccc3F)ccc1Oc1ncc(-c3ccnc(F)c3)cc12 [Example 220, (S)-7-(2,5-difluorophenyl)-3-(2-fluoropyridin-4-yl)-2′,6′-dihydrospiro[chromeno[2,3-b]pyridine-5,3′-[1,4]oxazin]-5′-amine]",2,4.4,,38,2,,
"NC1=N[C@@]2(CCO1)c1cc(-c3cccnc3F)ccc1Oc1ncc(-c3ccnc(F)c3)cc12 [Example 60, (S)-7-(2-fluoropyridin-3-yl)-3-(2-fluoropyridin-4-yl)-5′,6′-dihydrospiro[chromeno[2,3-b]pyridine-5,4′-[1,3]oxazin]-2′-amine]",12.2,11,,56,25,,
"CC(C)(F)COc1cc(F)c2c(c1)[C@]1(CCOC(N)=N1)c1cc(-c3cccnc3F)ccc1O2 [Example 182, (S)-4′-fluoro-2′-(2-fluoro-2-methylpropoxy)-7′-(2-fluoropyridin-3-yl)-5,6-dihydrospiro[[1,3]oxazine-4,9′-xanthen]-2-amine]",2.5,4.1,,59,30,,
"NC1=N[C@@]2(CCO1)c1cc(-c3cccnc3F)ccc1Oc1c(F)cc(N3CCC(F)(F)CC3)cc12 [Example 185, (4S)-2′-(4,4-difluoro-1-piperidinyl)-4′-fluoro-7′-(2-fluoro-3-pyridinyl)-5,6-dihydrospiro[1,3-oxazine-4,9′-xanthen]-2-amine]",4.4,9.6,,,,53,26
"NC1=N[C@@]2(CCO1)c1cc(-c3cccnc3F)ccc1Oc1cnc(C3=CCOCC3)cc12 [Example 111, (5S)-3-(3,6-dihydro-2H-pyran-4-yl)-7-(2-fluoro-3-pyridinyl)-5′,6′-dihydrospiro[chromeno[2,3-c]pyridine-5,4′-[1,3]oxazin]-2′-amine]",1.8,,2.1,81,67,,
"NC1=N[C@@]2(CCO1)c1cc(-c3cccnc3F)ccc1Oc1c(F)cc(C3=CCOCC3)cc12 [Example 163, (S)-2′-(3,6-dihydro-2H-pyran-4-yl)-4′-fluoro-7′-(2-fluoropyridin-3-yl)-5,6-dihydrospiro[[1,3]oxazine-4,9′-xanthen]-2-amine]",2.6,6,,52,28,,
"NC1=N[C@@]2(CCO1)c1cc(-c3cncc(F)c3)ccc1Oc1c2cc(-c2ccnc(F)c2)nc1F [Example 226, (S)-1-fluoro-7-(5-fluoropyridin-3-yl)-3-(2-fluoropyridin-4-yl)-5′,6′-dihydrospiro[chromeno[2,3-c]pyridine-5,4′-[1,3]oxazin]-2′-amine]",1.4,1.6,,83,74,,
"CC1(C#Cc2cc(F)c3c(c2)[C@]2(CCOC(N)=N2)c2cc(-c4cccnc4F)ccc2O3)COC1 [Example 17A, (S)-4′-fluoro-7′-(2-fluoropyridin-3-yl)-2′-((3-methyloxetan-3-yl)ethynyl)-5,6-dihydrospiro[[1,3]oxazine-4,9′-xanthen]-2-amine]",3.3,2.6,,44,37,,

# Compounds with a lower IC50 (BACE), results first:
IC50 (BACE) [nM],IC50 (Aβ40; [3]) [nM],IC50 (Aβ40; [4]) [nM],SMILES,inhibition in vivo at 10 mg/kg (Abeta 40; [1]) [%],inhibition in vivo at 10 mg/kg (Abeta 40; [2]) [%],"% reduction of rat CSF levels (Abeta 40; Abeta 40, rat CSF, at 30 mpk) [% at 30 mpk]","% reduction of rat brain levels (Abeta 40; Abeta 40, rat brain, at 30 mpk) [% at 30 mpk]"
0.2,,1.3,"CC(C)(F)COc1cc(F)c2c(c1)[C@]1(COCC(N)=N1)c1cc(-c3cccnc3F)ccc1O2 [Example 37A, (S)-4′-fluoro-2′-(2-fluoro-2-methylpropoxy)-7′-(2-fluoropyridin-3-yl)-2,6-dihydrospiro[[1,4]oxazine-3,9′-xanthen]-5-amine]",44,39,,
0.3,,1.3,"NC1=N[C@@]2(COC1)c1cc(-c3cccnc3F)ccc1Oc1c(F)cc(C3=CCCOC3)cc12 [Example 132, (S)-2′-(5,6-dihydro-2H-pyran-3-yl)-4′-fluoro-7′-(2-fluoropyridin-3-yl)-2,6-dihydrospiro[[1,4]oxazine-3,9′-xanthen]-5-amine]",38,25,,
0.3,,3,"NC1=N[C@@]2(COC1)c1cc(-c3cccnc3F)ccc1Oc1c(F)cc(C3=CCOCC3)cc12 [Example 40, (S)-2′-(3,6-dihydro-2H-pyran-4-yl)-4′-fluoro-7′-(2-fluoropyridin-3-yl)-2,6-dihydrospiro[[1,4]oxazine-3,9′-xanthen]-5-amine]",33,15,,
0.6,,1.2,"NC1=N[C@@]2(COC1)c1cc(-c3cccnc3F)ccc1Oc1cnc(N3CCC(F)(F)CC3)cc12 [Example 32, (S)-3-(4,4-difluoropiperidin-1-yl)-7-(2-fluoropyridin-3-yl)-2′,6′-dihydrospiro[chromeno[2,3-c]pyridine-5,3′-[1,4]oxazin]-5′-amine]",37,26,,
0.5,,0.5,"NC1=N[C@@]2(CCO1)c1cc(-c3cccnc3F)ccc1Oc1c2cc(C2=CCCOC2)nc1F [Example 110, (S)-3-(5,6-dihydro-2H-pyran-3-yl)-1-fluoro-7-(2-fluoropyridin-3-yl)-5′,6′-dihydrospiro[chromeno[2,3-c]pyridine-5,4′-[1,3]oxazin]-2′-amine]",86,79,,
0.6,,5.2,"NC1=N[C@]2(COC1)c1cc(C3=CCOCC3)ccc1Oc1ccc(-c3cccnc3F)cc12 [Example 64, (R)-2′-(3,6-dihydro-2H-pyran-4-yl)-7′-(2-fluoropyridin-3-yl)-2,6-dihydrospiro[[1,4]oxazine-3,9′-xanthen]-5-amine]",8,4,,
